Test results published in ChEMBL document CHEMBL1142394, “Morphinane alkaloid dimers from Sinomenium acutum” (J Nat Prod, 2008).

Tests used:
A549 = assay: Cytotoxicity against human A549 cells by MTT assay; assay type: functional, cell-based
HeLa = assay: Cytotoxicity against human HeLa cells by MTT assay; assay type: functional, cell-based

Q: Which results are given for COC1=C[C@@H]2[C@@H]3Cc4c(-c5cc(OC)c(O)c6c5C[C@H]5[C@H]7C=C(OC)C(=O)C[C@@]67CCN5C)cc(OC)c(O)c4[C@]2(CCN3C)CC1=O?
A: IC50 (A549): 71.8 µM; IC50 (HeLa): 70.7 µM

Q: Which IC50 (A549) does the source give for COC1=C[C@@H]2[C@@H]3Cc4cc(-c5cc6c(c(O)c5OC)[C@@]57CCN(C)[C@@H](C6)[C@H]5C=C(OC)C(=O)C7)c(OC)c(O)c4[C@]2(CCN3C)CC1=O here?
A: 65.5 µM

Q: And the IC50 (HeLa)?
A: 71.7 µM
